Source: patent US20150344457A1, “METHODS OF INHIBITING PRMT5” (EPIZYME, INC., priority 2012, published 2015)

target: T1, PRMT5/MEP50 (Homo sapiens, UniProt O14744); assay: PRMT5 Biochemical Assay (PRMT5/MEP50 enzyme assay on peptide substrate, 3H-SAM Flashplate); conditions: Table A-2; PRMT5/MEP50 4 nM, 3H-SAM 75 nM, peptide 40 nM; read-out: Biochemical IC50
T1 construct: Expressed full-length human Flag-PRMT5/6His-MeP50 protein complex was purified; made in house; host or cells: Spodoptera frugiperda (SF9) insect cells, baculovirus (pDEST8)
T1 sequence (O14744 with tags, fused parts or gaps): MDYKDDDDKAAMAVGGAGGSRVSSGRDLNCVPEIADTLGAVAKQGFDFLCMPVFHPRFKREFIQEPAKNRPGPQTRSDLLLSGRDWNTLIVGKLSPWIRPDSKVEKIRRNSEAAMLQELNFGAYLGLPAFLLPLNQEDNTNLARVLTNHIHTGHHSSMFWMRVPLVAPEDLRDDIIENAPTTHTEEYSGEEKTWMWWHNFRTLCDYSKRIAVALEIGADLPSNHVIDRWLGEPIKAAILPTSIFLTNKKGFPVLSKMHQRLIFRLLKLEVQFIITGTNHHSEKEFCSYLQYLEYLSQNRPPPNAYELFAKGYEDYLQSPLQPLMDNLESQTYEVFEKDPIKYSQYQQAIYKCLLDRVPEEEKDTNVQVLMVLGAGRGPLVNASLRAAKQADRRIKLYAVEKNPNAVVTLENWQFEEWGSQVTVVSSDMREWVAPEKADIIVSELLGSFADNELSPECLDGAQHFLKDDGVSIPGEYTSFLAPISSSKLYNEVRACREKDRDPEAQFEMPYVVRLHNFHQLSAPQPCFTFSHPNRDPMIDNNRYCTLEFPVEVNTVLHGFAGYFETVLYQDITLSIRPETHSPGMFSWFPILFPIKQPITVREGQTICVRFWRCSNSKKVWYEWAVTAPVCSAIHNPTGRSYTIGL
T1 sequence (Q9BQA1 with tags, fused parts or gaps partner limits assumed): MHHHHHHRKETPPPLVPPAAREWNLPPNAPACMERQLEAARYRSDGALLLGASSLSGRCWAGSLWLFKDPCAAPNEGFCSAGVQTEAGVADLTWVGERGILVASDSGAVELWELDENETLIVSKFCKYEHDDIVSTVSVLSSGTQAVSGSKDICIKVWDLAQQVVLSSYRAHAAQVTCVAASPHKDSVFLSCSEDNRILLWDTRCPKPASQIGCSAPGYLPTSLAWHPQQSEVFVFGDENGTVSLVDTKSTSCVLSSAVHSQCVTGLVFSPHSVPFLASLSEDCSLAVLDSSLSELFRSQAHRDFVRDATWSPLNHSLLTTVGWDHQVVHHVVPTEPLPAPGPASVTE

| SMILES | IC50 [nM] |
| --- | --- |
| O=C(COc1cccc(CN2CCOCC2)c1)NCC(O)CN1CCc2ccccc2C1 (centres unmarked) [Compound A75] | < 100 |
| C[C@H](Oc1cccc2cccnc12)C(=O)NC[C@H](O)CN1CCc2ccccc2C1 [Compound A76] | < 100 |
| O=C(COc1ccccc1N1CCOCC1)NC[C@H](O)CN1CCc2ccccc2C1 [Compound A77] | < 100 |
| O=C(COc1ccccc1N1CCNCC1)NCC(O)CN1CCc2ccccc2C1 (centres unmarked) [Compound A79] | < 100 |
| CN1C(=O)COc2cccc(OCC(=O)NCC(O)CN3CCc4ccccc4C3)c21 (centres unmarked) [Compound A80] | < 100 |
| CN1CCOc2cccc(OCC(=O)NCC(O)CN3CCc4ccccc4C3)c21 (centres unmarked) [Compound A81] | < 100 |
| Cn1ncc2c(OCC(=O)NCC(O)CN3CCc4ccccc4C3)cccc21 (centres unmarked) [Compound A82] | < 100 |
| O=C(COc1cccc(C(=O)N2CCOCC2)c1)NCC(O)CN1CCc2ccccc2C1 (centres unmarked) [Compound A83] | 101 to 1000 |
| CN1CCN(c2ccccc2OCC(=O)NC[C@H](O)CN2CCc3ccccc3C2)CC1 [Compound A84] | < 100 |
| O=C(COc1ccccc1OCCN1CCOCC1)NC[C@H](O)CN1CCc2ccccc2C1 [Compound A86] | < 100 |
| CN(C)CCOc1ccccc1OCC(=O)NC[C@H](O)CN1CCc2ccccc2C1 [Compound A88] | < 100 |
| CC(=O)N1CCN(c2ccccc2OCC(=O)NCC(O)CN2CCc3ccccc3C2)CC1 (centres unmarked) [Compound A90] | < 100 |
| O=C(COc1cccc2c1CCNC2)NCC(O)CN1CCc2ccccc2C1 (centres unmarked) [Compound A91] | < 100 |
| O=C(COc1cccc2nccnc12)NCC(O)CN1CCc2ccccc2C1 (centres unmarked) [Compound A92] | < 100 |
| O=C(COc1cccc(NC2CCOCC2)c1)NCC(O)CN1CCc2ccccc2C1 (centres unmarked) [Compound A93] | < 100 |
| O=C(COc1c(CN2CCOCC2)ccc2cccnc12)NC[C@H](O)CN1CCc2ccccc2C1 [Compound A94] | < 100 |
| O=C(COc1ccc2c(cnn2C2CCNC2)c1)NCC(O)CN1CCc2ccccc2C1 (centres unmarked) [Compound A95] | < 100 |

same assay, conditions: Table D-2; read-out: Biochemical IC50

| SMILES | IC50 [nM] |
| --- | --- |
| Cn1cnc2ccc(-c3cccc(NCC(O)CN4CCc5ccccc5C4)c3)cc21 (centres unmarked) [Compound D102] | < 100 |
| OC(COc1cccc(-c2ccc3ncn(C4CCOCC4)c3c2)c1)CN1CCc2ccccc2C1 (centres unmarked) [Compound D103] | 101 to 1000 |
| OC(COc1cccc(-c2ccc3ncn(-c4ccccc4)c3c2)c1)CN1CCc2ccccc2C1 (centres unmarked) [Compound D104] | 101 to 1000 |
| OC(COc1cccc(-c2ccc3ncn(Cc4ccccc4)c3c2)c1)CN1CCc2ccccc2C1 (centres unmarked) [Compound D105] | < 100 |
| Cn1ncc2ccc(-c3cccc(OCC(O)CN4CCc5ccccc5C4)c3)cc21 (centres unmarked) [Compound D106] | < 100 |
| OC(COc1cccc(-c2ccc3[nH]ncc3c2)c1)CN1CCc2ccccc2C1 (centres unmarked) [Compound D107] | 101 to 1000 |
| Cn1ncc2cc(-c3cccc(OCC(O)CN4CCc5ccccc5C4)c3)ccc21 (centres unmarked) [Compound D108] | < 100 |
| O=c1[nH]c2ccc(-c3cccc(OCC(O)CN4CCc5ccccc5C4)c3)cc2[nH]1 (centres unmarked) [Compound D109] | 101 to 1000 |
| Cc1ccncc1-c1cccc(OCC(O)CN2CCc3ccccc3C2)c1 (centres unmarked) [Compound D113] | 101 to 1000 |
| CN(CC(O)CN1CCc2ccccc2C1)c1cccc(CNC2CCOCC2)c1 (centres unmarked) [Compound D116] | < 100 |
| Cn1cnc2ccc(-c3cccc(NCC(O)CN4CCc5ccccc5C4)n3)cc21 (centres unmarked) [Compound D117] | 101 to 1000 |
| Cn1cnc2ccc(-c3ccnc(NCC(O)CN4CCc5ccccc5C4)c3)cc21 (centres unmarked) [Compound D118] | < 100 |
| Cn1cnc2ccc(-c3ccnc(NCC(O)CN4CCc5ccccc5C4)n3)cc21 (centres unmarked) [Compound D119] | 101 to 1000 |
| Cn1cnc2ccc(-c3cncc(NCC(O)CN4CCc5ccccc5C4)n3)cc21 (centres unmarked) [Compound D121] | 101 to 1000 |
| OC(COc1cccc(-c2ccc(C(F)(F)F)cc2C(F)(F)F)c1)CN1CCc2ccccc2C1 (centres unmarked) [Compound D124] | 101 to 1000 |
| CN(C)c1ncc(-c2cccc(OCC(O)CN3CCc4ccccc4C3)c2)cn1 (centres unmarked) [Compound D125] | 101 to 1000 |
| O=C(c1cccc(-c2cccc(OCC(O)CN3CCc4ccccc4C3)c2)c1)N1CCOCC1 (centres unmarked) [Compound D126] | 101 to 1000 |
| OC(COc1cccc(-c2ccc(C(F)(F)F)cc2Cl)c1)CN1CCc2ccccc2C1 (centres unmarked) [Compound D127] | 101 to 1000 |
| CS(=O)(=O)Nc1ccc(-c2cccc(OCC(O)CN3CCc4ccccc4C3)c2)cc1 (centres unmarked) [Compound D129] | 101 to 1000 |
| CS(=O)(=O)c1cccc(-c2cccc(OCC(O)CN3CCc4ccccc4C3)c2)c1 (centres unmarked) [Compound D130] | 101 to 1000 |
| CS(=O)(=O)c1ccccc1-c1cccc(OCC(O)CN2CCc3ccccc3C2)c1 (centres unmarked) [Compound D131] | 101 to 1000 |

| SMILES | IC50 [nM] |
| --- | --- |
| OC(COc1cccc(-c2ccccc2C(F)(F)F)c1)CN1CCc2ccccc2C1 (centres unmarked) [Compound D132] | 101 to 1000 |
| COc1ccc(Cl)cc1-c1cccc(OCC(O)CN2CCc3ccccc3C2)c1 (centres unmarked) [Compound D134] | 101 to 1000 |
| COC(=O)c1cccc(-c2cccc(OCC(O)CN3CCc4ccccc4C3)c2)c1 (centres unmarked) [Compound D135] | 101 to 1000 |
| Cn1ncc2ccc(-c3cc(COCC(O)CN4CCc5ccccc5C4)on3)cc21 (centres unmarked) [Compound D136] | 101 to 1000 |
| CC(=O)c1ccc(-c2cccc(OCC(O)CN3CCc4ccccc4C3)c2)cc1 (centres unmarked) [Compound D137] | 101 to 1000 |
| Cc1ccc(F)c(-c2cccc(OCC(O)CN3CCc4ccccc4C3)c2)c1 (centres unmarked) [Compound D138] | 101 to 1000 |
| OC(COc1cccc(-c2cccnc2F)c1)CN1CCc2ccccc2C1 (centres unmarked) [Compound D139] | 101 to 1000 |
| Cn1ccc2cnc(-c3cccc(OCC(O)CN4CCc5ccccc5C4)c3)nc21 (centres unmarked) [Compound D141] | < 100 |
| O=C(Nc1cccc(OCC(O)CN2CCc3ccccc3C2)c1)c1cnccn1 (centres unmarked) [Compound D145] | 101 to 1000 |
| Cn1ccc2ccc(-c3cccc(OCC(O)CN4CCc5ccccc5C4)c3)cc21 (centres unmarked) [Compound D147] | 101 to 1000 |
| O=C1NCc2ccc(-c3cccc(OCC(O)CN4CCc5ccccc5C4)c3)cc21 (centres unmarked) [Compound D148] | 101 to 1000 |
| CN1CCN(c2ccc(-c3cccc(OCC(O)CN4CCc5ccccc5C4)c3)cn2)CC1 (centres unmarked) [Compound D149] | 101 to 1000 |
| CC(C)(C)OCc1cccc(-c2cccc(OCC(O)CN3CCc4ccccc4C3)c2)c1 (centres unmarked) [Compound D150] | 101 to 1000 |
| CN(C)c1ccc(-c2cccc(OCC(O)CN3CCc4ccccc4C3)c2)cc1 (centres unmarked) [Compound D151] | 101 to 1000 |
| NC(=O)c1ccc(-c2cccc(OCC(O)CN3CCc4ccccc4C3)c2)cc1 (centres unmarked) [Compound D152] | 101 to 1000 |
| O=C1COc2ccc(-c3cccc(OCC(O)CN4CCc5ccccc5C4)c3)cc2N1 (centres unmarked) [Compound D156] | 101 to 1000 |
| Cn1nccc1C(=O)Nc1cccc(OCC(O)CN2CCc3ccccc3C2)c1 (centres unmarked) [Compound D160] | 1000 to 10000 |
| O=C(Nc1cccc(OCC(O)CN2CCc3ccccc3C2)c1)c1cncnc1 (centres unmarked) [Compound D161] | 1000 to 10000 |
| Cn1ccc(C(=O)Nc2cccc(OCC(O)CN3CCc4ccccc4C3)c2)n1 (centres unmarked) [Compound D162] | 1000 to 10000 |
| OC(COc1cccc(-c2ccc3cnoc3c2)c1)CN1CCc2ccccc2C1 (centres unmarked) [Compound D166] | 1000 to 10000 |
| OC(COc1cccc(-c2ccccc2Oc2ccccc2)c1)CN1CCc2ccccc2C1 (centres unmarked) [Compound D167] | 101 to 1000 |

| SMILES | IC50 [nM] |
| --- | --- |
| COc1ccc(-c2cccc(OCC(O)CN3CCc4ccccc4C3)c2)cc1Cl (centres unmarked) [Compound D168] | 101 to 1000 |
| CC(=O)Nc1cccc(-c2cccc(OCC(O)CN3CCc4ccccc4C3)c2)c1 (centres unmarked) [Compound D169] | 101 to 1000 |
| OC(COc1cccc(-c2csc3ccccc23)c1)CN1CCc2ccccc2C1 (centres unmarked) [Compound D170] | 101 to 1000 |
| NC(=O)c1cccc(-c2cccc(OCC(O)CN3CCc4ccccc4C3)c2)c1 (centres unmarked) [Compound D171] | 101 to 1000 |
| N#Cc1cccc(-c2cccc(OCC(O)CN3CCc4ccccc4C3)c2)c1 (centres unmarked) [Compound D172] | 101 to 1000 |
| Cn1cnc2ccc(-c3cccc(OC[C@H](O)CN4CCc5ccccc5C4)c3)cc21 [Compound D174] | < 100 |
| Cn1ccc2ccc(-c3cccc(OCC(O)CN4CCc5ccccc5C4)c3)nc21 (centres unmarked) [Compound D176] | < 100 |
| COC(=O)c1cncc(-c2cccc(OCC(O)CN3CCc4ccccc4C3)c2)c1 (centres unmarked) [Compound D180] | 1000 to 10000 |
| CNC(=O)c1cncc(-c2cccc(OCC(O)CN3CCc4ccccc4C3)c2)c1 (centres unmarked) [Compound D182] | 1000 to 10000 |
| Cn1cnc(C(=O)Nc2cccc(OCC(O)CN3CCc4ccccc4C3)c2)c1 (centres unmarked) [Compound D183] | 1000 to 10000 |
| O=C(c1cccc(-c2cccc(OCC(O)CN3CCc4ccccc4C3)c2)c1)N1CCCC1 (centres unmarked) [Compound D185] | 101 to 1000 |
| CNC(=O)c1cccc(-c2cccc(OCC(O)CN3CCc4ccccc4C3)c2)c1 (centres unmarked) [Compound D186] | 101 to 1000 |
| Cc1cn(C)c2cc(-c3cccc(OCC(O)CN4CCc5ccccc5C4)c3)ccc12 (centres unmarked) [Compound D187] | 101 to 1000 |
| OC(COc1cccc(-c2ccc3ncoc3c2)c1)CN1CCc2ccccc2C1 (centres unmarked) [Compound D188] | 101 to 1000 |
| Cn1cnc2ccc(-c3cccc(OCC(O)CN4CCc5ccccc5C4)c3)nc21 (centres unmarked) [Compound D189] | < 100 |
| Cn1cnc2cnc(-c3cccc(OCC(O)CN4CCc5ccccc5C4)c3)nc21 (centres unmarked) [Compound D191] | 101 to 1000 |
| Cn1cnc2ccc(-c3cncc(NCC(O)CN4CCc5ccccc5C4)c3)cc21 (centres unmarked) [Compound D199] | < 100 |
| OC(COc1cccc(-c2cc(OC(F)(F)F)ccc2Cl)c1)CN1CCc2ccccc2C1 (centres unmarked) [Compound D200] | 101 to 1000 |
| CC(C)Oc1ccc(F)c(-c2cccc(OCC(O)CN3CCc4ccccc4C3)c2)c1 (centres unmarked) [Compound D201] | 101 to 1000 |
| Cn1ncc2ccc(-c3cc(NCC(O)CN4CCc5ccccc5C4)ncn3)cc21 (centres unmarked) [Compound D205] | 101 to 1000 |
| Cn1cnc2ccc(-c3cc(NCC(O)CN4CCc5ccccc5C4)ncn3)cc21 (centres unmarked) [Compound D207] | 101 to 1000 |
